From US11964984B2, “TXNIP-TRX complex inhibitors and methods of using the same” (CITY OF HOPE, priority 2020, dated 2024)

What was measured:
[1] = test system: TNF-α mRNA; assay: TNF-α mRNA expression in murine RAW macrophages (RT-PCR); format: cell-based, mouse; conditions: RAW264.7 cells, 25 mM glucose, 72 hours
Experimental: (§1) FIGS. 3A-3B. FIG. 3A: C30 and C38 inhibited TXNIP mRNA expression in murine RAW macrophages. RAW cells were cultured under 25 mM glucose with various concentration of C30 and C38 as indicated for 72 hours. Total RNA was prepared. RT-PCR was performed and data shown are the mean±SEM from triplicates. Statistical analysis was performed for each column vs. high glucose (HG) DMSO using one-way ANOVA: *p<0.0001. FIG. 3B: Treatment with C30 and C38 decreased TNF-α mRNA expression in murine RAW macrophages. RAW cells were cultured under 25 mM glucose with various concentration of C30 and C38 as indicated for 72 hours. Total RNA was prepared. RT-PCR was performed and data shown are the mean±SEM from triplicates. Statistical analysis was performed for each column vs. HG DMSO using one-way ANOVA: *p<0.0001.
(§2) Treatment of murine RAW macrophages with lead compounds C30 and C38 decreased TXNIP and TNF-α. We have also tested the effects of the lead compound in murine RAW264.7 (RAW) macrophages. As in human THP1 cells, C30 and C38 inhibited TXNIP and TNF-α mRNA expression in mouse RAW cells (FIGS. 3A-3B) showing they are also effective in mouse cells. […]
(§3) RNA extraction and quantitative RT-PCR. […] Diluted cDNA was quantified using real-time PCR performed with Power SYBR Green qPCR MasterMix (Applied Biosystem) and 7500 real-time PCR system (Applied Biosystems). […]

[2] = Body weight after maximum dose regime (90 mg/kg) in mice; format: in vivo; conditions: 90 mg/kg oral gavage daily for 5 days, euthanasia 96 hr after last dose
Experimental: FIG. 15. Murine weight change after maximum dose regime (90 mg/kg).
The effects of compounds C30 and C38 at single high dose of 90 mg/kg. Twelve male mice were divided into three groups: 1) Control group (4 mice), 2) compound C30 (4 mice) and 3) compound C38 (4 mice). By oral gavage, animals were given 90 mg/kg of agent daily for 5 consecutive days (vehicle: 30% Solutol in saline). Mice were weighed every day during the treatment period. They were humanely euthanized 96 hours after the last dose. Tissues including the pancreas, liver and kidneys were collected (snap frozen in liquid nitrogen) for RNA extraction. […] Those given compound C30 lost ˜5% of body weight (FIG. 15).

[3] = test system: TXNIP mRNA; assay: TXNIP mRNA in human islets under high glucose plus cytokines; format: cell-based; conditions: 25 mM glucose + TNFα, IL1β, IFNγ, 40 hours
Experimental: FIGS. 18A-18B. C30 and C38 compounds protect cells from apoptosis in human islets. 100 IEQ human islets (Hu 1178) were cultured in PIM(R)© containing NG (5.8 mM glucose) or HG (25 mM glucose), and TNFα (20 ng/ml), IL1β (20 ng/ml), IFNγ (200 ng/ml) for 40 hours with or without lead compounds. Total RNA was prepared and RT PCR performed. FIG. 18A: BCL2/BAX ratios are the mean±SEM from triplicates. Statistical analysis was performed for each column vs. HG, 3 cytokines using one-way ANOVA: *p<0.002. FIG. 18B: TXNIP relative mRNA levels. Data shown are the mean±SEM from triplicates. Statistical analysis was performed for each column vs. HG, 3 cytokines using one-way ANOVA: **p<0.0001.
We mimicked T1D conditions in vitro (25 mM glucose, […], […] and […]) to induced apoptosis in human islets (obtained from the Southern California Islet Cell Resources Center at City of Hope). This high glucose/cytokine cocktail was able to induce apoptosis in cultured human islets as indicated by a decrease in the BCL2/BAX ratio (FIG. 18A).

[4] = test system: TXNIP mRNA; assay: TXNIP mRNA expression in murine RAW macrophages (RT-PCR); format: cell-based, mouse; conditions: RAW264.7 cells, 25 mM glucose, 72 hours
Experimental: as §1, §2, §3

[5] = test system: TNF-α mRNA; assay: TNF-α mRNA expression in THP1 cells under 25 mM glucose (RT-PCR); format: cell-based, human; conditions: 72 hours, relatively higher concentrations needed than for TXNIP mRNA
Experimental: FIGS. 2A-2B. FIG. 2A: C30 and C38 inhibited TXNIP mRNA expression in THP1 cells. THP1 cells were cultured under 25 mM glucose with the indicated concentrations of compounds for 72 hours. Cells were then collected for total RNA preparation. RT-PCR was performed, and data shown are the mean±SEM from triplicates. Statistical analysis was performed using one-way ANOVA, *p<0.0001. FIG. 2B: C30 and C38 inhibited TNF-α mRNA expression in THP1 cells. THP1 cells were cultured under 25 mM glucose with various concentrations of compounds as indicated for 72 hours and collected for total RNA preparation. RT-PCR was performed, and data shown are the mean±SEM from triplicates. Statistical analysis was performed using one-way ANOVA: *<0.02; **<0.0001.
Treatment with both agents lead to lower levels of TNF-α mRNA, although this required relatively higher concentrations compared to those that suppressed TXNIP mRNA (see FIG. 2A).
RNA extraction and quantitative RT-PCR. RNA was extracted using the Direct-zol™ RNA MiniPrep Plus (Zymo Research). […] Diluted cDNA was quantified using real-time PCR performed with Power SYBR Green qPCR MasterMix (Applied Biosystem) and 7500 real-time PCR system (Applied Biosystems). […]

[6] = test system: TXNIP mRNA; assay: TXNIP mRNA in CD14+ monocytes from type 2 diabetic donors (RT-qPCR); format: cell-based, human; conditions: CD14+ monocytes of T2D donors, 5 uM, 45 hours, ex vivo
Experimental: FIG. 20. Several lead compounds suppress TXNIP mRNA in T2D monocytes. CD14^+ monocytes were isolated from T2D patient peripheral blood mononuclear cells (PBMCs) and cultured in RPMI 1640 medium with 5 uM of C30 or C38 for 45 hours. Total RNA was collected. RT-PCR was performed in triplicates and data shown are the mean±SEM. Statistical analysis was performed using one-way ANOVA: *p<0.0001.
Anti-inflammatory (protective) effects of lead compounds in monocytes isolated from peripheral blood obtained from type 2 diabetic subjects. In accordance with an approved IRB protocol and our published methods, we isolated CD14+ monocytes from the peripheral blood of two donors with documented type 2 diabetes (T2D). These monocytes were cultured in vitro with vehicle, 5 uM C30 or C38, and levels of human TXNIP transcript assessed by RT-qPCR.

Compound | TNF-α mRNA expression [1] | loss of body weight [2] [%] | TXNIP expression increased during apoptosis [3] | TXNIP mRNA expression [4] | TNF-α mRNA expression [5] | expression of TXNIP [6] | weight loss [2]
COc1cc(N2CC[C@@H](c3ccc4ccccc4c3)[C@H](O)C2)nc(N)n1 [Compound C30] | inhibited | ~5 | significantly ameliorated | inhibited | reduced TNF-α expression | can inhibit the expression of TXNIP | –
c1ccc(CCNc2ncnc3c2oc2ccccc23)cc1 [Compound C38] | inhibited | – | significantly ameliorated | inhibited | reduced TNF-α expression | can inhibit the expression of TXNIP | no significant weight loss
